{"source": "patent US20150094364A1", "about": "“METHOD OF USING THEAFLAVIN” (priority 2013, published 2015)", "assay_type_in_all_cases": "in vivo, Wistar rats", "key": {"[1]": {"experiment": "Body weight, liver weight and liver/body ratio in ethanol-fed rats (ALD model)", "details": "ethanol 6000 mg/kg BW per day; for Liver Weight / Liver body ratio: 30 days; for BW (ending): end of 30-day study", "description": "(§1) 6-week old male rats (Wistar rats) were stabilized and then divided into 5 groups with 10 rats per group (n=10). Rats overdosed with ethanol were used as an experimental model for human ALD. Four groups of rats were fed with ethanol at a dose of 6000 mg/kg BW (50% ethanol at 12 ml/kg BW) per day for 30 days. These four groups were divided into positive control, theaflavin (low), theaflavin (mid), and theaflavin (high). Theaflavin (capsule, Xiayie) was also fed to rat at a dose of 83 mg/kg BW (low), 250 mg/kg (mid), and 500 mg/kg (high). In addition, Fifth group was fed with water as a negative control. Animals were sacrificed after the 30-day study and livers were collected for further analyses."}, "[2]": {"tested_on": "Rats overdosed with ethanol (experimental model for human ALD)", "experiment": "Liver markers MDA, GSH and TG in ethanol-fed rats (ALD model)", "details": "for GSH / MDA / TG: rat liver, ethanol 30 days", "description": "as §1\nThree liver markers, i.e., malondialdehyde (MDA, a marker of oxidative stress), glutathione (GSH), and triglyceride (TG) were measured."}, "[3]": {"tested_on": "Rats overdosed with ethanol (experimental model for human ALD)", "experiment": "Liver histopathology (liver cell fat rating, fat color rating) in ethanol-fed rats (ALD model)", "design": "Liver cell fat rating / Liver cell fat rating, sum / Fat color rating: scale not given here", "details": "for Fat color rating: n=10; for Liver cell fat rating: individual animals (ID 1-10); for Liver cell fat rating, sum: sum of 10 animals", "description": "as §1"}}, "note": "Where “and” joins values, the source holds several entries; their conditions need not be identical. Equal entries are not always repeated."}
{"smiles": "O=c1c(O)cc([C@H]2Oc3cc(O)cc(O)c3C[C@H]2O)cc2c([C@H]3Oc4cc(O)cc(O)c4C[C@H]3O)cc(O)c(O)c12", "note": "[Theaflavin, theaflavin]", "values": [{"measurement": "Liver Weight", "setting": "[1]; 83 mg/kg BW theaflavin", "result": "9.19 ± 0.88", "unit": "g"}, {"measurement": "Liver body ratio", "setting": "[1]; 83 mg/kg BW theaflavin", "result": "2.79 ± 0.22", "unit": "%"}, {"measurement": "BW (ending)", "setting": "[1]; 83 mg/kg BW theaflavin", "result": "329.1 ± 19.17", "unit": "g"}, {"measurement": "BW (intermediate)", "setting": "[1]; 83 mg/kg BW theaflavin", "result": "256.1 ± 21.23", "unit": "g"}, {"measurement": "Liver Weight", "setting": "[1]; 250 mg/kg BW theaflavin", "result": "9.83 ± 1.12", "unit": "g"}, {"measurement": "Liver body ratio", "setting": "[1]; 250 mg/kg BW theaflavin", "result": "2.86 ± 0.23", "unit": "%"}, {"measurement": "BW (ending)", "setting": "[1]; 250 mg/kg BW theaflavin", "result": "342.9 ± 21.99", "unit": "g"}, {"measurement": "BW (intermediate)", "setting": "[1]; 250 mg/kg BW theaflavin", "result": "266.3 ± 17.10", "unit": "g"}, {"measurement": "Liver Weight", "setting": "[1]; 500 mg/kg BW theaflavin", "result": "10.34 ± 1.32", "unit": "g"}, {"measurement": "Liver body ratio", "setting": "[1]; 500 mg/kg BW theaflavin", "result": "2.84 ± 0.27", "unit": "%"}, {"measurement": "BW (ending)", "setting": "[1]; 500 mg/kg BW theaflavin", "result": "365.2 ± 44.39", "unit": "g"}, {"measurement": "BW (intermediate)", "setting": "[1]; 500 mg/kg BW theaflavin", "result": "272.3 ± 17.27", "unit": "g"}, {"measurement": "GSH", "setting": "[2]; 83 mg/kg BW theaflavin", "result": "13.86 ± 1.80", "unit": "mg/g"}, {"measurement": "MDA", "setting": "[2]; 83 mg/kg BW theaflavin", "result": "1.32 ± 0.13", "unit": "nmol/mg"}, {"measurement": "TG", "setting": "[2]; 83 mg/kg BW theaflavin", "result": "0.62 ± 0.21", "unit": "mmol/L"}, {"measurement": "GSH", "setting": "[2]; 250 mg/kg BW theaflavin", "result": "13.91 ± 1.66", "unit": "mg/g"}, {"measurement": "MDA", "setting": "[2]; 250 mg/kg BW theaflavin", "result": "1.24 ± 0.49", "unit": "nmol/mg"}, {"measurement": "TG", "setting": "[2]; 250 mg/kg BW theaflavin", "result": "0.65 ± 0.14", "unit": "mmol/L"}, {"measurement": "GSH", "setting": "[2]; 500 mg/kg BW theaflavin", "result": "14.43 ± 0.69", "unit": "mg/g"}, {"measurement": "MDA", "setting": "[2]; 500 mg/kg BW theaflavin", "result": "1.23 ± 0.08", "unit": "nmol/mg"}, {"measurement": "TG", "setting": "[2]; 500 mg/kg BW theaflavin", "result": "0.64 ± 0.13", "unit": "mmol/L"}, {"measurement": "MDA when compared to positive controls", "setting": "[2]; theaflavin (high) 500 mg/kg", "result": "lower"}, {"measurement": "TG when compared to positive controls", "setting": "[2]; theaflavin (high) 500 mg/kg", "result": "lower"}, {"measurement": "MDA when compared to positive controls", "setting": "[2]; theaflavin (mid) 250 mg/kg", "result": "lower"}, {"measurement": "TG when compared to positive controls", "setting": "[2]; theaflavin (mid) 250 mg/kg", "result": "lower"}, {"measurement": "Fat color rating", "setting": "[3]; 83 mg/kg BW theaflavin", "result": "1.60 ± 0.70"}, {"measurement": "Fat color rating", "setting": "[3]; 250 mg/kg BW theaflavin", "result": "1.40 ± 0.70"}, {"measurement": "Fat color rating", "setting": "[3]; 500 mg/kg BW theaflavin", "result": "1.30 ± 0.82"}, {"measurement": "Liver cell fat rating", "setting": "[3]; theaflavin (high) 500 mg/kg, 500 mg/kg", "result": "1 (6×) and 0 and 3 and 2 (2×)"}, {"measurement": "Liver cell fat rating", "setting": "[3]; theaflavin (low) 83 mg/kg BW, 83 mg/kg", "result": "1 (5×) and 3 and 2 (4×)"}, {"measurement": "Liver cell fat rating", "setting": "[3]; theaflavin (mid) 250 mg/kg, 250 mg/kg", "result": "1 (4×) and 0 and 2 (5×)"}, {"measurement": "Liver cell fat rating, sum", "setting": "[3]; theaflavin (high) 500 mg/kg", "result": 13}, {"measurement": "Liver cell fat rating, sum", "setting": "[3]; theaflavin (low) 83 mg/kg BW", "result": 16}, {"measurement": "Liver cell fat rating, sum", "setting": "[3]; theaflavin (mid) 250 mg/kg", "result": 14}, {"measurement": "Fat color rating compared to positive control", "setting": "[3]; theaflavin (high) 500 mg/kg", "result": "different readings"}, {"measurement": "Liver cell fat rating compared to positive control", "setting": "[3]; theaflavin (high) 500 mg/kg", "result": "different readings"}, {"measurement": "Fat color rating compared to positive control", "setting": "[3]; theaflavin (mid) 250 mg/kg", "result": "different readings"}, {"measurement": "Liver cell fat rating compared to positive control", "setting": "[3]; theaflavin (mid) 250 mg/kg", "result": "different readings"}]}
